Test results: patent US20150147411A1, “COMPOSITION FOR PREVENTING OR TREATING COLITIS COMPRISING S-ALLYL-L-CYSTEINE AS ACTIVE INGREDIENT, AND MEDICAL PREPARATION COMPRISING SAME” (PHARMAKING CO., LTD., priority 2012, published 2015)

How the values were obtained:
Assay type in all cases: in vivo, C57BL6 mice
[1] = Body weight of mice pre-treated with compositions, DSS-induced colitis
Method: In this experiment, C57BL6 mice were employed for the following reasons. The experimental animals are widely used throughout the world and are evaluated as being suitable for validity assays. In addition, because a great amount of fundamental test data on various disease models of the animals has been accumulated, the data can be utilized in analyzing and assessing test results. When purchased from OrientBio Inc. the experimental animals weighed 18 g±20%. They were bred under a light intensity of 150˜300 Lux in the controlled condition of 12:12-h light-dark cycles, with at least 10 ventilation rounds per hour.
(§1) For use in testing therapeutic effects of the agents of Examples, Comparative Examples, and Control Examples, the mice (G1 to G7) were fed with a 2.5 wt % aqueous dextran sodium sulfate (DSS) solution to induce inflammatory bowel disease therein.
Weights are expressed as mean±standard deviation.
From Jan. 12, 2012, the mice were allowed to drink an aqueous DSS 2.5 wt % solution for 7 days. DSS-induced diarrhea or hematochezia caused mice in groups G2 to G7 to lose weight, as compared at the point of DSS treatment.

COX-2 = COX-2 expression in colon tissue by immunofluorescence
Method: as §1
The immunofluorescence of COX-2 was performed on paraffin unstained slides of animal tissues.

[2] = Side effects of S-allyl-L-cysteine
Description: Cyclosporine or prednisolone, which are […] used to treat colitis thanks to their immunosuppressive effects, are reported to have the side effect of weight gain.
The anti-inflammatory agents including mesalizine or mesalazine, NSAIDs, etc. are known to cause various side effects such as hypersensitive reactions, nausea, vomiting, headache, etc.

[3] = tested on: dextran sodium sulfate (DSS)-induced colitis mouse models; assay: Disease Activity Index (DAI) score, DSS-induced colitis
Description: as §1
(§2) At the end of the test, Disease Activity Index (DAI) Scores were made in consideration of the degree of hematochezia and diarrhea, and are depicted in FIG. 3. In the graph, # represents significance (p<0.0001) compared to the normal (G1), and * represents significance (p<0.05), compared to the colitis animal model.

[4] = tested on: dextran sodium sulfate (DSS)-induced colitis mouse models; assay: Colon length from cecum to end of colon, DSS-induced colitis; settings: G3 to G6 (12.5-100 mg/kg) compared to Comparative Example, with statistical significance, FIG. 4
Description: as §1
After 7 days of DSS drinking, the mice were sacrificed in an ether anesthetized condition, and the colon was excised.
as §2

[5] = tested on: dextran sodium sulfate (DSS)-induced colitis mouse models; assay: Pathological observation of colon by H&E staining, total pathologic score
Method: as §1
Colon specimens taken were fixed in a 10% formalin solution and stained with hematoxylin & eosin (H&E stain), and their images are given in FIG. 5. Further, they were evaluated through a blind test under the criteria of a total of six histopathological opinions on inflammation (inflammation, follicle aggregation, oedema, erosion/ulceration, crypt loss, and infiltration of mono- and polymorphonuclear cells), and scored. Total pathologic scores obtained by summing up scores for each items and for the six opinions are depicted in FIG. 6.

IL-1β = assay: Level of inflammatory cytokine IL-1β; settings: G3 to G6 (12.5-100 mg/kg), FIG. 7, equivalency to control G7
Method: as §1
(§3) Levels of IL-1β IL-6, IL-12, and TNF-α, which are representative inflammation-inducing cytokines, were measured. […] The observation results are depicted in […].

IL-6 = assay: Level of inflammatory cytokine IL-6; settings: G3 to G6 (12.5-100 mg/kg), FIG. 8, equivalency to control G7
Method: as §1, §3

TNF-α = assay: Level of inflammatory cytokine TNF-α; settings: G3 to G6 (12.5-100 mg/kg), FIG. 9, equivalency to control G7
Method: as §1, §3

IL-12 = assay: Level of inflammatory cytokine IL-12; settings: G3 to G6 (12.5-100 mg/kg), FIG. 10, equivalency to control G7
Method: as §1, §3

Malondialdehyde (MDA) = assay: Anti-oxidant activity: malondialdehyde (MDA), lipid peroxidation
Description: as §1
Malondialdehyde (MDA), accounting for the degree of lipid peroxidation, a representative marker of oxidation stress, was quantified.

[6] = tested on: total antioxidant concentration; assay: Anti-oxidant activity: total antioxidant concentrations in tissues; settings: G3 (12.5 mg/kg) compared to the DSS-treated group
Description: as §1
Its amount was discovered to decrease at a low concentration of S-allyl-L-cysteine as in G3 and G4, with statistical significance.

O=C(NC(Cc1cc(=O)[nH]c2ccccc12)C(=O)O)c1ccc(Cl)cc1 (stereo not drawn) [Control, Rebamipide, reference compound]
Body weight (mean ± standard deviation) ([1]; G7, Control 50 mg/kg, 2012.01.12, at the time of DSS treatment): 23.2 ± 1.2 g
Body weight (mean ± standard deviation) ([1]; G7, Control 50 mg/kg, 2012.01.18, at autopsy after 7 days DSS 2.5 wt %): 21.1 ± 0.9 g
COX-2 expression in the fascial tissue beneath the mucosal tissue (COX-2; G7 (Control 50 mg/kg), immunofluorescence): did not effectively do so
COX-2 expression in mucosal tissues (COX-2; G7 (Control 50 mg/kg), immunofluorescence, FIG. 13): inhibited COX-2 expression in mucosal tissues
Side effects (hypersensitive reactions, nausea, vomiting, headache, etc.) ([2]; control G7, extended test period of 12 weeks): side effects detected

C=CCSC[C@H](N)C(=O)O [Example 1, S-allyl-L-cysteine]
Body weight (mean ± standard deviation) ([1]; G3, Ex. 1 12.5 mg/kg, 2012.01.12, at the time of DSS treatment, 12.5 mg/kg): 22.1 ± 2.4 g
Body weight (mean ± standard deviation) ([1]; G3, Ex. 1 12.5 mg/kg, 2012.01.18, at autopsy after 7 days DSS 2.5 wt %, 12.5 mg/kg): 20.3 ± 2.2 g
Body weight (mean ± standard deviation) ([1]; G4, Ex. 1 25 mg/kg, 2012.01.12, at the time of DSS treatment, 25 mg/kg): 22.8 ± 0.8 g
Body weight (mean ± standard deviation) ([1]; G4, Ex. 1 25 mg/kg, 2012.01.18, at autopsy after 7 days DSS 2.5 wt %, 25 mg/kg): 20.5 ± 0.9 g
Body weight (mean ± standard deviation) ([1]; G5, Ex. 1 50 mg/kg, 2012.01.12, at the time of DSS treatment, 50 mg/kg): 22.9 ± 1.1 g
Body weight (mean ± standard deviation) ([1]; G5, Ex. 1 50 mg/kg, 2012.01.18, at autopsy after 7 days DSS 2.5 wt %, 50 mg/kg): 21.4 ± 0.8 g
Body weight (mean ± standard deviation) ([1]; G6, Ex. 1 100 mg/kg, 2012.01.12, at the time of DSS treatment, 100 mg/kg): 22.2 ± 1.3 g
Body weight (mean ± standard deviation) ([1]; G6, Ex. 1 100 mg/kg, 2012.01.18, at autopsy after 7 days DSS 2.5 wt %, 100 mg/kg): 21.6 ± 0.7 g
Therapeutic effects (DAI, colon length) compared with conventional agent (G7) ([3]; G3 to G6 (12.5-100 mg/kg) vs G7 (Control 50 mg/kg)): equivalent to or higher than those of the conventional agent
Disease Activity Index (DAI) score ([3]; G3 to G6 (12.5-100 mg/kg), DSS 2.5 wt %, end of test, FIG. 3): score low in DAI
Colon length [4]: recovered the colon length
Rehabilitation of mucosal tissues by total pathologic score ([5]; G3 (12.5 mg/kg), FIG. 6): best rehabilitation of mucosal tissues
Histology of intestinal mucosa tissues (H&E) ([5]; G3 to G6 (12.5-100 mg/kg), FIG. 5): recovered the intestinal mucosa tissues to a normal state
Total pathologic score (H&E) ([5]; G3 to G6 (12.5-100 mg/kg), FIG. 6): lowered the pathologic score
Therapeutic effect (pathologic score) compared with control G7 ([5]; G3 to G6 vs G7 (Control 50 mg/kg)): equivalent to or higher than that of the control G7
Expression level of IL-1β (IL-1β): decreased expression levels
Expression level of IL-6 (IL-6): decreased expression levels
Expression level of TNF-α (TNF-α): decreased expression levels
Expression level of IL-12 (IL-12): decreased expression levels
Amount of malondialdehyde (MDA) (Malondialdehyde (MDA); G3 and G4 (12.5 and 25 mg/kg), with statistical significance): decrease
Level of MDA (Malondialdehyde (MDA); G3 to G6 (12.5-100 mg/kg), equivalency or superiority to control G7): decreased the level of MDA
Total antioxidant concentration in tissues [6]: increase in antioxidant concentration
COX-2 expression level (COX-2; G3 (12.5 mg/kg)): significantly increased
COX-2 expression levels in mucosal tissues (COX-2; G3 to G6 (12.5-100 mg/kg), immunofluorescence, FIG. 13): reduced COX-2 expression levels
COX-2 expression in the fascial tissue (COX-2; G4 to G6 (25-100 mg/kg), immunofluorescence): inhibited COX-2 expression even in the fascial tissue
COX-2 expression level (COX-2; other test groups (G4 to G6, 25-100 mg/kg)): significantly decrease
Side effect of weight gain ([2]; G3 to G6 (12.5-100 mg/kg)): not cause the side effect of weight gain
Side effects (hypersensitive reactions, nausea, vomiting, headache, etc.) ([2]; G3 to G6, extended test period of 12 weeks): did not suffer from the side effects
